Data reported in ChEMBL document CHEMBL1123151, “Carbocyclic analogues of 5'-amino-5'-deoxy- and 3'-amino-3'-deoxythymidines” (1986).

Tests used:
Vero [1] = experiment: Compound was tested for inhibition against replication of type 1 herpes simplex virus (HSV-1,strain 377) in vero cells; type: functional, Chlorocebus sabaeus
[2] = Ratio of the virus rating of the thymidine analogue to the virus rating of ara-A; type: functional
Vero [3] = experiment: Compound was tested for inhibition against replication of type 1 herpes simplex virus (HSV-1,strain 377) in vero cells; Experiment 4; type: functional, Chlorocebus sabaeus
Vero [4] = experiment: Compound was tested for inhibition against replication of type 1 herpes simplex virus (HSV-1,strain 377) in vero cells; Experiment 2; type: functional, Chlorocebus sabaeus
L929 [5] = experiment: Compound was tested for inhibition against replication of type 1 herpes simplex virus (HSV-1,strain 377) L929 cells; type: functional, Mus musculus
[6] = Ratio of the virus rating of the thymidine analogue to the virus rating of ara-A in vero cells; Experiment 2; type: functional
L929 [7] = experiment: Compound was tested for inhibition against replication of type 1 herpes simplex virus (HSV-1,strain 377) in L929 cells; type: functional, Mus musculus
L929 [8] = experiment: Compound was tested for inhibition against replication of type 1 herpes simplex virus (HSV-1,strain 377) in L929 cells; Experiment 2; type: functional, Mus musculus
Vero [9] = experiment: Compound was tested for inhibition against replication of type 1 herpes simplex virus (HSV-1,strain 377) in vero cells; Experiment 3; type: functional, Chlorocebus sabaeus
[10] = Ratio of the virus rating of the thymidine analogue to the virus rating of ara-A in vero cells; Experiment 3; type: functional
L929 [11] = experiment: Compound was tested for inhibition against replication of type 1 herpes simplex virus (HSV-2,strain MS) in L929 cells; type: functional, Mus musculus
[12] = Ratio of the virus rating of the thymidine analogue to the virus rating of ara-A in vero cells; Experiment 4; type: functional
L929 [13] = experiment: Compound was tested for inhibition against replication of type 1 herpes simplex virus (HSV-1,strain 377) in L929 cells; Experiment 1; type: functional, Mus musculus
[14] = Ratio of the virus rating of the thymidine analogue to the virus rating of ara-A; Experiment 2; type: functional
HEp-2 = experiment: Compound was tested for inhibition against replication of type 1 herpes simplex virus (HSV-1,strain HF) in human epidermoid carcinoma cells; type: functional
[15] = Ratio of the virus rating of the thymidine analogue to the virus rating of ara-A; Experiment 1; type: functional
Vero [16] = experiment: Compound was tested for inhibition against replication of type 1 herpes simplex virus (HSV-1, strain 377) in vero cells; Experiment 2; type: functional, Chlorocebus sabaeus
Vero [17] = experiment: Compound was tested for inhibition against replication of type 1 herpes simplex virus (HSV-1, strain 377) in vero cells; Experiment 5; type: functional, Chlorocebus sabaeus

SMILES | Ratio [2] | VR (Vero [3]) | VR (Vero [4]) | VR (L929 [7]) | VR (L929 [8]) | VR (Vero [9]) | VR (L929 [11]) | Ratio [14] | VR (HEp-2) | further results
Cc1cn([C@@H]2C[C@H](CO)[C@@H](N=[N+]=[N-])C2)c(=O)[nH]c1=O | – | – | – | – | – | – | – | – | – | VR (Vero [1]): 0
Cc1cn([C@@H]2C[C@H](CO)[C@@H](N)C2)c(=O)[nH]c1=O | 0 | 0.4 | 0 | – | – | – | – | – | – | VR (L929 [5]): 0.4
Cc1cn([C@@H]2C[C@H](CO)[C@H](N=[N+]=[N-])C2)c(=O)[nH]c1=O | – | 0.8 | 0.6 | 0.2 | 0 | 1 | 0 | – | – | Ratio [6]: 0.43; Ratio [10]: 0.5; Ratio [12]: 0.44
Cc1cn(C2CC(O)C(CN)C2)c(=O)[nH]c1=O (stereo not given) | – | 0 | – | – | 1.8 | 0 | 0.5 | 1.28 | 0.2 | VR (L929 [13]): 3; Ratio [15]: 1
Cc1cn([C@@H]2C[C@H](CO)[C@H](N)C2)c(=O)[nH]c1=O | – | – | – | – | 0.9 | – | – | 0.9 | – | VR (Vero [16]): 0; VR (Vero [17]): 0
Cc1cn(C2CC(O)C(CN=[N+]=[N-])C2)c(=O)[nH]c1=O (stereo not given) | 0.27 | – | – | 0.8 | – | – | 0 | – | 0 | –
